Source: ChEMBL document CHEMBL2413016, “Synthesis and in vivo evaluation of [(18)F]2-(4-(4-(2-(2-fluoroethoxy)phenyl)piperazin-1-yl)butyl)-4-methyl-1,2,4-triazine-3,5(2H,4H)-dione ([(18)F]FECUMI-101) as an imaging probe for 5-HT1A receptor agonist in nonhuman primates” (Bioorg Med Chem, 2013)

Tests used:
[1] = target: D(2) dopamine receptor (Homo sapiens, UniProt P14416); assay: Binding affinity to dopamine 2 receptor (unknown origin)
[2] = target: Alpha-2C adrenergic receptor (Homo sapiens, UniProt P18825); assay: Binding affinity to adrenergic alpha2C receptor (unknown origin)
[3] = target: 5-hydroxytryptamine receptor 1D (Homo sapiens, UniProt P28221); assay: Binding affinity to 5HT1D receptor (unknown origin)
[4] = target: 5-hydroxytryptamine receptor 2B (Homo sapiens, UniProt P41595); assay: Binding affinity to 5HT2B receptor (unknown origin)
[5] = target: Alpha-1A adrenergic receptor (Homo sapiens, UniProt P35348); assay: Binding affinity to adrenergic alpha1A receptor (unknown origin)
[6] = target: Histamine H2 receptor (Homo sapiens, UniProt P25021); assay: Binding affinity to histamine H2 receptor (unknown origin)
[7] = target: D(1A) dopamine receptor (Homo sapiens, UniProt P21728); assay: Binding affinity to dopamine 1 receptor (unknown origin)
[8] = Binding affinity to sigma 2 receptor (unknown origin); design: species or system Homo sapiens
[9] = target: Alpha-1D adrenergic receptor (Homo sapiens, UniProt P25100); assay: Binding affinity to adrenergic alpha1D receptor (unknown origin)
[10] = Binding affinity to benzodiazepine receptor in rat brain; assay type: tissue-based
[11] = target: T1, 5-hydroxytryptamine receptor 1A (Homo sapiens, UniProt P08908); assay: Partial agonist activity at human 5HT1A receptor expressed in CHO cells assessed as increase in [35S]GTPgammaS binding; assay type: functional, cell-based
T1 sequence (P08908 whole entry): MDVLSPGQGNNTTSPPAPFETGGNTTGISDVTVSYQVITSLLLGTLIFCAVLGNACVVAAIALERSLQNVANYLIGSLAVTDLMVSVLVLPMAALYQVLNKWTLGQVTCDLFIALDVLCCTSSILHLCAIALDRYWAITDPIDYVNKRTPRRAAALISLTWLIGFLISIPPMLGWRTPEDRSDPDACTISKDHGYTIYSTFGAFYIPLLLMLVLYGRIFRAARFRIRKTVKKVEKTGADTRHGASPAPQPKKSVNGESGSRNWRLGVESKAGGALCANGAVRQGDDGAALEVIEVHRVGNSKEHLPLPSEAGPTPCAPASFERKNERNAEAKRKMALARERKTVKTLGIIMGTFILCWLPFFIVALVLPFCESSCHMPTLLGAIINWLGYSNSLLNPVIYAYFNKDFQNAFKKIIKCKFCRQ

[12] = target: D(4) dopamine receptor (Homo sapiens, UniProt P21917); assay: Binding affinity to dopamine 4 receptor (unknown origin)
[13] = target: Histamine H1 receptor (Homo sapiens, UniProt P35367); assay: Binding affinity to histamine H1 receptor (unknown origin)
[14] = target: 5-hydroxytryptamine receptor 1A (Homo sapiens) (UniProt P08908); assay: Partial agonist activity at human 5HT1A receptor expressed in CHO cells assessed as increase in [35S]GTPgammaS binding relative to serotonin; assay type: functional, cell-based
[15] = target: 5-hydroxytryptamine receptor 1B (Homo sapiens, UniProt P28222); assay: Binding affinity to 5HT1B receptor (unknown origin)
[16] = target: Sigma non-opioid intracellular receptor 1 (Homo sapiens, UniProt Q99720); assay: Binding affinity to sigma 1 receptor (unknown origin)
[17] = target: T1, 5-hydroxytryptamine receptor 1A; assay: Binding affinity to 5HT1A receptor (unknown origin)
[18] = target: D(3) dopamine receptor (Homo sapiens, UniProt P35462); assay: Binding affinity to dopamine 3 receptor (unknown origin)
[19] = target: 5-hydroxytryptamine receptor 7 (Homo sapiens, UniProt P34969); assay: Binding affinity to 5HT7 receptor (unknown origin)
[20] = target: Alpha-2B adrenergic receptor (Homo sapiens, UniProt P18089); assay: Binding affinity to adrenergic alpha2B receptor (unknown origin)
[21] = target: Alpha-1B adrenergic receptor (Homo sapiens, UniProt P35368); assay: Binding affinity to adrenergic alpha1B receptor (unknown origin)
[22] = target: Alpha-2A adrenergic receptor (Homo sapiens, UniProt P08913); assay: Binding affinity to adrenergic alpha2A receptor (unknown origin)
[23] = target: 5-hydroxytryptamine receptor 2A (Homo sapiens, UniProt P28223); assay: Binding affinity to 5HT2A receptor (unknown origin)
[24] = target: 5-hydroxytryptamine receptor 5A (Homo sapiens, UniProt P47898); assay: Binding affinity to 5HT5A receptor (unknown origin)
Chain of 5-hydroxytryptamine receptor 5A (P47898 whole entry): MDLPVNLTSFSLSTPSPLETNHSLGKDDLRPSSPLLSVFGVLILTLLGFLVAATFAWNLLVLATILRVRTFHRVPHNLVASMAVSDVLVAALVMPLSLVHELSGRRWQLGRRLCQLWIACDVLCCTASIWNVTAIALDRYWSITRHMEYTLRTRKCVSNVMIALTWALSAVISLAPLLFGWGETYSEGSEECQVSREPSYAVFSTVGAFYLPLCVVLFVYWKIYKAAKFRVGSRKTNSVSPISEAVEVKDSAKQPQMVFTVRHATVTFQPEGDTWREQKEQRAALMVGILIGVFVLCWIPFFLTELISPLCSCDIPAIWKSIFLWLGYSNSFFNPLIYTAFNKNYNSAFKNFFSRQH

Chain of 5-hydroxytryptamine receptor 7 (P34969 whole entry): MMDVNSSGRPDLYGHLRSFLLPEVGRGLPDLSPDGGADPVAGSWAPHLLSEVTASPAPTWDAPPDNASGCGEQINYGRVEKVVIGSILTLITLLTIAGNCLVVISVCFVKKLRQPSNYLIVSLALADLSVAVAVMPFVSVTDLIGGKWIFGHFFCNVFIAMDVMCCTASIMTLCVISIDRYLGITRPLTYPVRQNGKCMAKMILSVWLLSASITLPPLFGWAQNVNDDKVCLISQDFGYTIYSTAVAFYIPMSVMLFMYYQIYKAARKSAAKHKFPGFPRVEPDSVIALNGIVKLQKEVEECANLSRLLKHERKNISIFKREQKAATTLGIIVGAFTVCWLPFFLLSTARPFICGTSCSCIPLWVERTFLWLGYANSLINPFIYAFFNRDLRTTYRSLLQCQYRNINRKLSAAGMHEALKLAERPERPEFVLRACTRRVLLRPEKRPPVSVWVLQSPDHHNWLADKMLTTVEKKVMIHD
Chain of Alpha-2A adrenergic receptor (P08913 whole entry): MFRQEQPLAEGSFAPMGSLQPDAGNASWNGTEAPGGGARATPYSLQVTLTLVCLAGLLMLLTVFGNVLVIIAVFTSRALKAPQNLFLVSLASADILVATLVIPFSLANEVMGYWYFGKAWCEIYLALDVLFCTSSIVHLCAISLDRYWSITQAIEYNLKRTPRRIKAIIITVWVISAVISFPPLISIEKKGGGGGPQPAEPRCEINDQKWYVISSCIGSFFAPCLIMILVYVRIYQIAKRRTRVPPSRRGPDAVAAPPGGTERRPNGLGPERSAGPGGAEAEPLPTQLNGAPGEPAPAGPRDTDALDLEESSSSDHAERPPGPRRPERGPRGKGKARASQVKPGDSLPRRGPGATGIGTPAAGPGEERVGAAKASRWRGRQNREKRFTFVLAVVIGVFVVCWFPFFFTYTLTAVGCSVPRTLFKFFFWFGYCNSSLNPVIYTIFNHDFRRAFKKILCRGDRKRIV
Chain of Alpha-2C adrenergic receptor (P18825 whole entry): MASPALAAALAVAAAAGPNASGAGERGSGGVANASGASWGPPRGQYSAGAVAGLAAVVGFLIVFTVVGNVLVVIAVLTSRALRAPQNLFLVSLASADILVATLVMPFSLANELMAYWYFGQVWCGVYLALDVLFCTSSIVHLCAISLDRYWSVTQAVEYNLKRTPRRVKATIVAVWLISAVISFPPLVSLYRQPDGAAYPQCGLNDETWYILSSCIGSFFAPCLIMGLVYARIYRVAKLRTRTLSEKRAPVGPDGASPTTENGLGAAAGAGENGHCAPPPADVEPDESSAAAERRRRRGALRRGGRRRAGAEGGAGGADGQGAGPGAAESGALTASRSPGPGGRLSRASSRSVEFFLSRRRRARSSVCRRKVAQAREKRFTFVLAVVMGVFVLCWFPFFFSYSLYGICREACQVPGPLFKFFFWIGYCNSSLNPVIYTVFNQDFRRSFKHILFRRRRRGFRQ
Chain of Alpha-1A adrenergic receptor (P35348 whole entry): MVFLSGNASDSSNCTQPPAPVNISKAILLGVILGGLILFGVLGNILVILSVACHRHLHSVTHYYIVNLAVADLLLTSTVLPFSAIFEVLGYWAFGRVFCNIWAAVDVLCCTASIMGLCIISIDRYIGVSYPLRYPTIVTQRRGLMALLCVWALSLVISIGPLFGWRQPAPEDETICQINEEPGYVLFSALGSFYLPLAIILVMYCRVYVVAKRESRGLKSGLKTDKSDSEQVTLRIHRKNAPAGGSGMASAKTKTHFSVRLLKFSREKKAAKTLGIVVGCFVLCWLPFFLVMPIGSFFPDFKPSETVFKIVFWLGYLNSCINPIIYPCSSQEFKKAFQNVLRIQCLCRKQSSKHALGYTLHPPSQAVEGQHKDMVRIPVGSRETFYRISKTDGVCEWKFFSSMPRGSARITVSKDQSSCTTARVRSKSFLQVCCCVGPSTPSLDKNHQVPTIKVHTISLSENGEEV
Chain of Alpha-1B adrenergic receptor (P35368 whole entry): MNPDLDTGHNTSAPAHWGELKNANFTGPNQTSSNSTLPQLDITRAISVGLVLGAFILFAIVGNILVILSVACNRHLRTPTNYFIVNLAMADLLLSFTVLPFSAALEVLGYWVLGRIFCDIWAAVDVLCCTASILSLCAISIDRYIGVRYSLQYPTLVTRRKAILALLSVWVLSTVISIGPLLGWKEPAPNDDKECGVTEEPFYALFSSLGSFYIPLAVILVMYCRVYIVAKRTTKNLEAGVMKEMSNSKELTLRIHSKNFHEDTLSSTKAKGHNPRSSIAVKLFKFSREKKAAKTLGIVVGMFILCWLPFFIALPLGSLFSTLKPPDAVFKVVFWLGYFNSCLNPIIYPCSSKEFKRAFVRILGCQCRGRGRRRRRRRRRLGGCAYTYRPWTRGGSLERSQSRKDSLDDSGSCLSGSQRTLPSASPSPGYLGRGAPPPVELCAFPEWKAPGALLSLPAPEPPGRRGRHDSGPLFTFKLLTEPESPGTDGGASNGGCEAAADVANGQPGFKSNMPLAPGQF
Chain of 5-hydroxytryptamine receptor 1D (P28221 whole entry): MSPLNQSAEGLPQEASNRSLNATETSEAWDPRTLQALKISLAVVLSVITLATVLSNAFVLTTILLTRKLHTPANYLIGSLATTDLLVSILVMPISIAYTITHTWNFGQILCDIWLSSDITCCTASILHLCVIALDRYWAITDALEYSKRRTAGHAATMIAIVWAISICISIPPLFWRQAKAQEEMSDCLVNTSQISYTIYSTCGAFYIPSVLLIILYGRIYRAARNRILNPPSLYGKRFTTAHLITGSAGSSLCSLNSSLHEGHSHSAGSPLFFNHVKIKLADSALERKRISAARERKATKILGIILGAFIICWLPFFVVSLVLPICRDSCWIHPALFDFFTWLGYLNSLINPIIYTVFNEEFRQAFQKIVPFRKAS
Chain of Sigma non-opioid intracellular receptor 1 (Q99720 whole entry): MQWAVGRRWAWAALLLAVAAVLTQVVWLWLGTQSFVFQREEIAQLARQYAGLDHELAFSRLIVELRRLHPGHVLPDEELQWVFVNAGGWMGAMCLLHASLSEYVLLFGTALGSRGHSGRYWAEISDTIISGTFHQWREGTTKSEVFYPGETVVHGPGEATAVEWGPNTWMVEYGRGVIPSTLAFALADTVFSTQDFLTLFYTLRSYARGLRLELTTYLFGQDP
Chain of Alpha-1D adrenergic receptor (P25100 whole entry): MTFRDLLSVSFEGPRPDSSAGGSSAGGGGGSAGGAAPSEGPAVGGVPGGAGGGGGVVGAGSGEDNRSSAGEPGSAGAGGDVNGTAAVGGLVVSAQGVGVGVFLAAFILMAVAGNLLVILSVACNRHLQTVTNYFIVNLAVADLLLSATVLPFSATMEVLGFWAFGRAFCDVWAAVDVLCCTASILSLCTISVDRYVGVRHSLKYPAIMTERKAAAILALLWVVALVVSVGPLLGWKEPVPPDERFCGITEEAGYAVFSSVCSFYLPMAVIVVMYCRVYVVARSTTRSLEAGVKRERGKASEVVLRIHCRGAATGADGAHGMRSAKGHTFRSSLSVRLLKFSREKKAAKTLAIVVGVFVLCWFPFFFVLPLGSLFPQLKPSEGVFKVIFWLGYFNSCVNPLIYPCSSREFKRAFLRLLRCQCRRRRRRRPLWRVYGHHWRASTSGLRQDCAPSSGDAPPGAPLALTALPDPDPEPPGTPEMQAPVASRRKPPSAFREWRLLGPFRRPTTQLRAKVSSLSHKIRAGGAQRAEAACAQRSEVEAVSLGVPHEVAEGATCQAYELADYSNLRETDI
Chain of D(3) dopamine receptor (P35462 whole entry): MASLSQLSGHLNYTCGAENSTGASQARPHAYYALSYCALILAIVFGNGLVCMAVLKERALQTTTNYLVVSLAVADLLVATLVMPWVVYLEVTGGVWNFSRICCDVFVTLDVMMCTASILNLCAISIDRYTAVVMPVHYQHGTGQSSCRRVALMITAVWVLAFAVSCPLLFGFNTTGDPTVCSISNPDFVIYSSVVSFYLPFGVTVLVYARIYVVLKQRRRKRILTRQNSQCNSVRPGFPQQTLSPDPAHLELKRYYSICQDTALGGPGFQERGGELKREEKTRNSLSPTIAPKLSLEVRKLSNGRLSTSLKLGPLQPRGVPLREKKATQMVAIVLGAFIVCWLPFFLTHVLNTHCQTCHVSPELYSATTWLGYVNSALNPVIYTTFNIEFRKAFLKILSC
Chain of Histamine H1 receptor (P35367 whole entry): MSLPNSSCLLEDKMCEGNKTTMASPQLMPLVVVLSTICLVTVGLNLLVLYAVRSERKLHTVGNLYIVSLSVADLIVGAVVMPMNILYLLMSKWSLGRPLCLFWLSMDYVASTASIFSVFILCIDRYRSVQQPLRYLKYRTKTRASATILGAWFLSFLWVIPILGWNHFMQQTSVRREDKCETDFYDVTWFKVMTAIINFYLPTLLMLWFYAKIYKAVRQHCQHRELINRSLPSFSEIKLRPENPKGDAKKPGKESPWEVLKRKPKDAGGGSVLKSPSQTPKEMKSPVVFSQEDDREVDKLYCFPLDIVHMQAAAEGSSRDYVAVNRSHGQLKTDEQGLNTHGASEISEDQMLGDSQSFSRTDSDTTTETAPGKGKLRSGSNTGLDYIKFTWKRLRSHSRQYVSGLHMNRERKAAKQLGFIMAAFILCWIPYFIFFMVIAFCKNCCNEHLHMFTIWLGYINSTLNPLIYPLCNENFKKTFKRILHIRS

SMILES: COc1ccccc1N1CCN(CCCCn2ncc(=O)n(C)c2=O)CC1
- Ki [1]: > 10000 nM
- Ki [2]: 15 nM
- Ki [3]: 88.3 nM
- Ki [4]: 73.6 nM
- Ki [5]: 6.75 nM
- Ki [6]: 2130 nM
- Ki [7]: > 10000 nM
- Ki [8]: 123 nM
- Ki [9]: > 10000 nM
- Ki [10]: > 10000 nM
- EC50 [11]: 0.1 nM
- Ki [12]: 21 nM
- Ki [13]: 1030 nM
- Emax [14]: 80%
- Ki [15]: 643 nM
- Ki [16]: 59 nM
- Ki [17]: 0.15 nM
- Ki [18]: > 10000 nM
- Ki [19]: 12.9 nM
- Ki [20]: 238 nM
- Ki [21]: > 10000 nM
- Ki [22]: 96 nM
- Ki [23]: 4980 nM
- Ki [24]: > 10000 nM
